Measurements reported in patent US4150029A, “3-Aryl 2-oxazolidinones, their process of preparation and their therapeutical application” (Delalande S.A., priority 1976, dated 1979).
Like-named read-outs stand apart in the source and are kept apart here.

How the values were obtained:
[1] = tested on: generalised trembling caused by an intraperitoneal injection of dl-5-hydroxytryptophane; assay: Test A: potentiation of generalised trembling caused by dl-5-hydroxytryptophane in the mouse; format: in vivo; details: po, read-out: Test A 50 DE
Procedure: Potentiation in a mouse of generalised trembling caused by an intraperitoneal injection (200 mg/kg) of dl-5-hydroxytryptophane, according to the mode of operation described by GOURET C. and RAYNAUD G. in the J. Pharmacol. (PARIS), (1974), 5, 231.

[2] = tested on: ptosis observed one hour after an intravenous injection of reserpine; assay: Test B: antagonism of reserpine-induced ptosis in the mouse; format: in vivo; details: po, 1 h, p.o., reserpine 2 mg/kg i.v., read-out: Test B 50 DE
Procedure: Antagonism in relation to ptosis observed one hour after an intravenous injection (2 mg/kg) of reserpine was given to a mouse, according to the mode of operation described by GOURET C. and THOMAS J. in J. Pharmacol. (PARIS), (1973), 4, 401.

[3] = tested on: pontogeniculo-occipital points (P.G.O.) caused by reserpine; assay: Test C: diminution in density of reserpine-induced pontogeniculo-occipital (P.G.O.) points in the cat; format: in vivo; details: Felis catus, po, reserpine 0.5 mg/kg, read-out: Test C 50 DE
Procedure: Diminution in the density of pontogeniculo-occipital points (P.G.O.) caused by injecting a cat with 0.5 mg/kg of reserpine, according to the mode of operation described by COSTON A. and GOURET C. in J. Pharmacol. (PARIS), (1976), 7, 409.

Acute toxicity in mice = details: mouse, in vivo, po; for LD50: acute toxicity, read-out: 50 DL
[4] = mouse, p.o., dl-5-hydroxytryptophane 200 mg/kg i.p.

| SMILES | ED50 [1, 4] [mg/kg] | ED50 [2] [mg/kg] | ED50 [3] [mg/kg] | LD50 (Acute toxicity in mice) [mg/kg] | ED50 ([1]; Mus musculus) [mg/kg] | mortality (Acute toxicity in mice; dose administered 2000 mg/kg/p.o.) [%] | mortality (Acute toxicity in mice; dose administered 1000 mg/kg/p.o.) [%] |
| --- | --- | --- | --- | --- | --- | --- | --- |
| Cc1cccc(N2CC(CO)OC2=O)c1 (stereo not drawn) [TOLOXATONE, reference compound] | 60 | 50 | 28 | 1850 | – | – | – |
| O=C1OC(CO)CN1c1cccc([N+](=O)[O-])c1 (stereo not drawn) [compound 740511, 5-hydroxymethyl-3-metanitrophenyl-2 oxazolidinone] | 55 | 17 | 40 | – | – | – | – |
| CCc1cccc(N2CC(CO)OC2=O)c1 (stereo not drawn) [compound 740512] | 68 | 32 | 50 | – | – | – | – |
| O=C1OC(CO)CN1c1ccc([N+](=O)[O-])cc1 (stereo not drawn) [compound 740564] | 38 | 42 | 16 | > 1000 | – | – | – |
| CNC(=O)OCC1CN(c2cccc(C(F)(F)F)c2)C(=O)O1 (stereo not drawn) [compound 740704] | – | 12 | 52 | – | 42 | 0 | – |
| CC(C)NC(=O)OCC1CN(c2cccc(C(F)(F)F)c2)C(=O)O1 (stereo not drawn) [compound 740711] | 19 | 26 | – | – | – | – | 0 |
| Cc1ccc(N2CC(CO)OC2=O)cc1C (stereo not drawn) [compound 750341] | 100 | 41 | 22 | – | – | – | – |
| O=C1OC(CO)CN1c1cccc(Br)c1 (stereo not drawn) [compound 750710] | 62 | 100 | 14 | – | – | – | – |
| CCOc1ccc(N2CC(COC(=O)NC)OC2=O)cc1 (stereo not drawn) [compound 760104] | – | 44 | > 50 | – | 48 | – | – |
| CC(C)Oc1ccc(N2CC(CO)OC2=O)cc1 (stereo not drawn) [compound 760116] | 60 | 50 | 15 | – | – | – | – |
| CN(C)c1ccc(N2CC(CO)OC2=O)cc1 (stereo not drawn) [compound 760133] | 11 | 7.2 | 4.5 | – | – | – | – |
| CCCOc1ccc(N2CC(CO)OC2=O)cc1 (stereo not drawn) [compound 760303] | 9 | 14 | 6.9 | – | – | – | – |
| C=CCOc1ccc(N2CC(CO)OC2=O)cc1 (stereo not drawn) [compound 760306] | 14 | 29 | 2.5 | – | – | – | – |
| C#CCOc1ccc(N2CC(CO)OC2=O)cc1 (stereo not drawn) [compound 760307] | 8 | 14 | 5 | – | – | – | – |
| CCN(CC)c1ccc(N2CC(CO)OC2=O)cc1 (stereo not drawn) [compound 760311] | 27 | 32 | 9 | – | – | – | – |
| O=C1OC(CO)CN1c1ccc(OC2CCCCC2)cc1 (stereo not drawn) [compound 760314] | 19 | 18 | 12 | – | – | – | – |
| O=C1OC(CO)CN1c1ccc(OCCc2ccccc2)cc1 (stereo not drawn) [compound 760317] | 25 | 17 | 45 | – | – | – | – |
| O=C1OC(CO)CN1c1ccc(OCc2ccc(Cl)cc2)cc1 (stereo not drawn) [compound 760337] | 6 | 5 | 120 | – | – | – | – |
| CN(Cc1ccccc1)c1ccc(N2CC(CO)OC2=O)cc1 (stereo not drawn) [compound 760375, 5-hydroxymethyl 3-p-N-benzyl N-methylaminophenyl 2-oxazolidinone] | 39 | 28 | 160 | – | – | – | – |

| SMILES | ED50 [1, 4] [mg/kg] | ED50 [2] [mg/kg] | ED50 [3] [mg/kg] | LD50 (Acute toxicity in mice) [mg/kg] | ED50 ([1]; Mus musculus) [mg/kg] | mortality (Acute toxicity in mice; dose administered 2000 mg/kg/p.o.) [%] | mortality (Acute toxicity in mice; dose administered 1000 mg/kg/p.o.) [%] |
| --- | --- | --- | --- | --- | --- | --- | --- |
| CNc1ccc(N2CC(CO)OC2=O)cc1 (stereo not drawn) [compound 760395, 5-hydroxymethyl 3-p-N-methylaminophenyl 2-oxazolidinone] | 39 | 28 | 160 | – | – | – | – |
| CCCCCOc1ccc(N2CC(CO)OC2=O)cc1 (stereo not drawn) [compound 760396] | 12 | 1.4 | 20 | – | – | – | – |
| CNC(=O)OCC1CN(c2ccc(OCc3ccccc3)cc2)C(=O)O1 (stereo not drawn) [compound 760409] | – | 7 | > 50 | – | 100 | – | – |
| CC(C)COc1ccc(N2CC(CO)OC2=O)cc1 (stereo not drawn) [compound 760414] | 13 | 3 | 5.5 | – | – | – | – |
| O=C1OC(CO)CN1c1ccc(OCc2ccc(F)cc2)cc1 (stereo not drawn) [compound 760432] | 3.8 | 2 | 24 | – | – | – | – |
| O=C1OC(CO)CN1c1ccc(OCc2cccc(F)c2)cc1 (stereo not drawn) [compound 760453] | 5.5 | 7 | 11.6 | – | – | – | – |
| CCSc1ccc(N2CC(CO)OC2=O)cc1 (stereo not drawn) [compound 760466] | 40 | 32 | 8.25 | – | – | – | – |
| CCCCSc1ccc(N2CC(CO)OC2=O)cc1 (stereo not drawn) [compound 760473] | 41 | 22 | 11.5 | – | – | – | – |
| O=C1OC(CO)CN1c1ccc(N2CCCC2)cc1 (stereo not drawn) [compound 760474] | 42 | 68 | 14 | – | – | – | – |
| Cc1cccc(COc2ccc(N3CC(CO)OC3=O)cc2)c1 (stereo not drawn) [compound 760533] | 41 | 54 | 51 | – | – | – | – |
| C=C(C)COc1ccc(N2CC(CO)OC2=O)cc1 (stereo not drawn) [compound 760535] | 28 | 50 | 5.1 | – | – | – | – |
| C=CCCOc1ccc(N2CC(CO)OC2=O)cc1 (stereo not drawn) [compound 760536] | 8.6 | 15 | 6.3 | – | – | – | – |
| Cc1ccccc1COc1ccc(N2CC(CO)OC2=O)cc1 (stereo not drawn) [compound 760537] | 35 | 17 | 37.5 | – | – | – | – |
| O=C1OC(CO)CN1c1ccc(OCc2cccc(Cl)c2)cc1 (stereo not drawn) [compound 760548] | 4.4 | 3.4 | 33.5 | – | – | – | – |
| CCCCCCOc1ccc(N2CC(CO)OC2=O)cc1 (stereo not drawn) [compound 760549] | 26 | 11 | 85 | – | – | – | – |
| O=C1OC(CO)CN1c1ccc(OCc2cccc(C(F)(F)F)c2)cc1 (stereo not drawn) [compound 760556] | 5 | 3.2 | 14.1 | – | – | – | – |
| O=C1OC(CO)CN1c1ccc(OCc2ccc(Br)cc2)cc1 (stereo not drawn) [compound 760574] | 21 | 22 | > 50 | – | – | – | – |
| CCCSc1ccc(N2CC(CO)OC2=O)cc1 (stereo not drawn) [compound 760600] | 19 | 15.4 | 6.26 | – | – | – | – |
| O=C1OC(CO)CN1c1ccc(SC2CCCCC2)cc1 (stereo not drawn) [compound 760621] | 100 | 42 | 40 | – | – | – | – |

| SMILES | ED50 [1, 4] [mg/kg] | ED50 [2] [mg/kg] | ED50 [3] [mg/kg] | LD50 (Acute toxicity in mice) [mg/kg] | ED50 ([1]; Mus musculus) [mg/kg] | mortality (Acute toxicity in mice; dose administered 2000 mg/kg/p.o.) [%] | mortality (Acute toxicity in mice; dose administered 1000 mg/kg/p.o.) [%] |
| --- | --- | --- | --- | --- | --- | --- | --- |
| O=C1OC(CO)CN1c1ccc(OCc2ccc([N+](=O)[O-])cc2)cc1 (stereo not drawn) [compound 760622] | 5.5 | 2.1 | 40 | – | – | – | – |
| CC(C)=CCOc1ccc(N2CC(CO)OC2=O)cc1 (stereo not drawn) [compound 760650] | 25.5 | 3.4 | 7.03 | – | – | – | – |
| N#CCOc1ccc(N2CC(CO)OC2=O)cc1 (stereo not drawn) [compound 760651, 5-hydroxymethyl 3-p-cyanomethyloxyphenyl 2-oxazolidinone] | 5.5 | 2.5 | 1.5 | – | – | – | – |
| CC(=O)COc1ccc(N2CC(CO)OC2=O)cc1 (stereo not drawn) [compound 760652] | 7.1 | 2.8 | 13 | – | – | – | – |
| C#CCOc1ccc(N2CC(COC(=O)NC)OC2=O)cc1 (stereo not drawn) [compound 760658] | – | 27 | 13.9 | – | > 12.5 | – | – |
| CNC(=O)OCC1CN(c2ccc(OCC#N)cc2)C(=O)O1 (stereo not drawn) [compound 760660, 5-N-methylcarbamoyloxymethyl 3-p-cyanomethyloxyphenyl 2-oxazolidinone] | – | 31 | 12.3 | – | > 12.5 | – | – |
| CCCCOc1ccc(N2CC(COC(=O)NC)OC2=O)cc1 (stereo not drawn) [compound 760662] | – | 17.5 | 23 | – | 48 | – | – |
| CC(=O)c1ccc(N2CC(CO)OC2=O)cc1 (stereo not drawn) [compound 760670] | 21 | 10 | 14 | – | – | – | – |
| CNC(=O)OCC1CN(c2ccc(OCc3ccc([N+](=O)[O-])cc3)cc2)C(=O)O1 (stereo not drawn) [compound 760676] | – | 6.25 | 22 | – | > 12.5 | – | – |
| CNC(=O)OCC1CN(c2ccc(OCC(C)C)cc2)C(=O)O1 (stereo not drawn) [compound 760712] | – | 25 | 35 | – | 48 | – | – |
| CNC(=O)OCC1CN(c2ccc(OCc3ccc(F)cc3)cc2)C(=O)O1 (stereo not drawn) [compound 760717] | – | 12.5 | > 50 | – | > 12.5 | – | – |
| CC(C)NC(=O)OCC1CN(c2ccc(OCc3ccccc3)cc2)C(=O)O1 (stereo not drawn) [compound 760723] | > 50 | 17.5 | > 50 | – | – | – | – |
| CNC(=O)OCC1CN(c2ccc(OCc3cccc(Cl)c3)cc2)C(=O)O1 (stereo not drawn) [compound 760729] | – | 23 | 50 | – | > 12.5 | – | – |
| CNC(=O)OCC1CN(c2ccc(C(C)=O)cc2)C(=O)O1 (stereo not drawn) [compound 760731] | – | 15 | 17.5 | – | > 25 | – | – |
| CNC(=O)OCC1CN(c2ccc(SC)cc2)C(=O)O1 (stereo not drawn) [compound 760786] | – | 40 | 25.5 | – | > 50 | – | – |
| C/C=C/COc1ccc(N2CC(CO)OC2=O)cc1 (stereo not drawn) [compound 760827] | 15 | 10 | 5.2 | – | – | – | – |
| CC#CCOc1ccc(N2CC(CO)OC2=O)cc1 (stereo not drawn) [compound 760877] | 25 | 25 | 5.6 | – | – | – | – |
| N#Cc1ccc(COc2ccc(N3CC(CO)OC3=O)cc2)cc1 (stereo not drawn) [compound 760881] | 12.5 | 5 | 29 | – | – | – | – |
